This is an account of results in US20240238426A1, “PROTEIN ACYLATION MODULATION BY HETEROBIFUNCTIONAL MOLECULES” (THE SCRIPPS RESEARCH INSTITUTE, priority 2021, published 2024).

The structures appear in SMILES notation.

Assay [1] deals with p21 promoter. Kind of assay: ChIP-qPCR of FKBP12^F36V-p53 binding to p21 promoter. The format is cell-based, Human. The conditions noted are these: AceTAG-1 treatment vs DMSO, FIG. 7G. The text has this: The p53/p21 ^CIP/WAF1 pathway is one of the most well-studied pathways related to p53 acetylation ^[8a, 14]. It has been reported that acetylation of p53 at lysine 373 and 382 play an important in activating transcription and translation of the p21^CIP/WAF1 gene^[15], which inhibits cell cycle progression during G1 and G2 phases ^[16]. However, it is still unknown whether these are the only two sites necessary for activation of downstream pathway. Moreover, the molecular mechanism as to how AceTAG-1 mediates p21 induction is currently uncertain as there are multiple hypotheses of how p53 acetylation affects transcriptional activity. […] We first tested whether AceTAG-mediated p53 acetylation increases its DNA binding to p21 promoter by ChIP-qPCR. The cells were incubated with AceTAG-1 and FKBP12^F36V-HA-p53 was immunoprecipitated, where DNA binding to the protein was purified for qPCR analysis. Among five p21 DNA sequences, binding of FKBP12^F36V-p53 to four previously reported p53 binding sites on p21 promoter (Mujtaba et al., Molecular Cell 13, 251-263, 2004) were increased with AceTAG-1 treatment.

The test system of assay [2] is p300/CBP substrates, including c-Myc and STAT3. The experiment in a line: Immunoblot of acetylation of other p300/CBP substrates in HeLa cells. The assay is classed as cell-based, Human. The conditions noted are these: increasing concentration. As for the experimental part:
(§1) Immunoblotting: Cells were harvested in cold DPBS by scraping and washed with cold DPBS twice. Cell pellets were resuspended in DPBS supplemented with 5 mM sodium butyrate, 20 mM Nicotinamide, and 1X Halt Protease Inhibitor Cocktail and lysed by sonication (15 ms on, 40 ms off, 15% amplitude, 1s total on x 3). Protein concentration was determined using DC Protein Assay (Bio-Rad) and absorbance read using a CLARIOstar plate reader following manufacturer's instructions. Samples with equal protein content were boiled in 4X SDS gel loading buffer for 10 min. Proteins were separated by 10%, 12.5%, or 15% SDS-polyacrylamide gel electrophoresis and transferred to PVDF membranes using Trans-Blot Turbo RTA Mini […] LF PVDF Transfer Kit (Bio-Rad). Membranes were incubated for 1 h at room temperature with blocking buffer, followed by incubating overnight at 4° C. with primary antibodies. After washing in TBST, the secondary antibodies were incubated with the membranes at room temperature for 1 h. The membranes were washed with TBST for three times and visualized on a Bio-Rad ChemiDoc MP Imaging System with Clarity Max Western ECL substrate (Bio-Rad) or SuperSignal West Femto Chemiluminescent substrate proprietary luminol and peroxide solution kit (Thermo Scientific Pierce).

Assay [3] addresses T1, H3.3-FKBP12^F36V (Homo sapiens, UniProt P62942+Q09472, F37V).
T1 construct: expressed in transfected cells
The experiment in a line: Immunoblot analysis of H3.3-FKBP12^F36V acetylation in HeLa cells. The format is cell-based. As to the method:
Lentivirus Production and Transduction: Lentiviral production was performed using HEK293T cells, which were co-transfected with pMD2.G (Addgene, #12259), psPAX2 (Addgene, #12260), and AceTAG lentiviral plasmids using PEI (Polysciences Inc). Viral particles were collected 72 h after transfection and filtered through a […] membrane. A range of dilutions of the lentivirus in DMEM complete and 10 μg/mL polybrene were added to HeLa, H1299, or HeLa RelA KO cell lines. Transduced cells were selected with 1 μg/mL or 2 μg/mL puromycin.
as §1

T1 sequence (P62942 2-108 F37V limits assumed): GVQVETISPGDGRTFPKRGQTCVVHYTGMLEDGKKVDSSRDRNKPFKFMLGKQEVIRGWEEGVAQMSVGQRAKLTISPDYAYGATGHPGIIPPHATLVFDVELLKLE
T1 sequence (Q09472 2-2414 limits assumed, stated change not applied): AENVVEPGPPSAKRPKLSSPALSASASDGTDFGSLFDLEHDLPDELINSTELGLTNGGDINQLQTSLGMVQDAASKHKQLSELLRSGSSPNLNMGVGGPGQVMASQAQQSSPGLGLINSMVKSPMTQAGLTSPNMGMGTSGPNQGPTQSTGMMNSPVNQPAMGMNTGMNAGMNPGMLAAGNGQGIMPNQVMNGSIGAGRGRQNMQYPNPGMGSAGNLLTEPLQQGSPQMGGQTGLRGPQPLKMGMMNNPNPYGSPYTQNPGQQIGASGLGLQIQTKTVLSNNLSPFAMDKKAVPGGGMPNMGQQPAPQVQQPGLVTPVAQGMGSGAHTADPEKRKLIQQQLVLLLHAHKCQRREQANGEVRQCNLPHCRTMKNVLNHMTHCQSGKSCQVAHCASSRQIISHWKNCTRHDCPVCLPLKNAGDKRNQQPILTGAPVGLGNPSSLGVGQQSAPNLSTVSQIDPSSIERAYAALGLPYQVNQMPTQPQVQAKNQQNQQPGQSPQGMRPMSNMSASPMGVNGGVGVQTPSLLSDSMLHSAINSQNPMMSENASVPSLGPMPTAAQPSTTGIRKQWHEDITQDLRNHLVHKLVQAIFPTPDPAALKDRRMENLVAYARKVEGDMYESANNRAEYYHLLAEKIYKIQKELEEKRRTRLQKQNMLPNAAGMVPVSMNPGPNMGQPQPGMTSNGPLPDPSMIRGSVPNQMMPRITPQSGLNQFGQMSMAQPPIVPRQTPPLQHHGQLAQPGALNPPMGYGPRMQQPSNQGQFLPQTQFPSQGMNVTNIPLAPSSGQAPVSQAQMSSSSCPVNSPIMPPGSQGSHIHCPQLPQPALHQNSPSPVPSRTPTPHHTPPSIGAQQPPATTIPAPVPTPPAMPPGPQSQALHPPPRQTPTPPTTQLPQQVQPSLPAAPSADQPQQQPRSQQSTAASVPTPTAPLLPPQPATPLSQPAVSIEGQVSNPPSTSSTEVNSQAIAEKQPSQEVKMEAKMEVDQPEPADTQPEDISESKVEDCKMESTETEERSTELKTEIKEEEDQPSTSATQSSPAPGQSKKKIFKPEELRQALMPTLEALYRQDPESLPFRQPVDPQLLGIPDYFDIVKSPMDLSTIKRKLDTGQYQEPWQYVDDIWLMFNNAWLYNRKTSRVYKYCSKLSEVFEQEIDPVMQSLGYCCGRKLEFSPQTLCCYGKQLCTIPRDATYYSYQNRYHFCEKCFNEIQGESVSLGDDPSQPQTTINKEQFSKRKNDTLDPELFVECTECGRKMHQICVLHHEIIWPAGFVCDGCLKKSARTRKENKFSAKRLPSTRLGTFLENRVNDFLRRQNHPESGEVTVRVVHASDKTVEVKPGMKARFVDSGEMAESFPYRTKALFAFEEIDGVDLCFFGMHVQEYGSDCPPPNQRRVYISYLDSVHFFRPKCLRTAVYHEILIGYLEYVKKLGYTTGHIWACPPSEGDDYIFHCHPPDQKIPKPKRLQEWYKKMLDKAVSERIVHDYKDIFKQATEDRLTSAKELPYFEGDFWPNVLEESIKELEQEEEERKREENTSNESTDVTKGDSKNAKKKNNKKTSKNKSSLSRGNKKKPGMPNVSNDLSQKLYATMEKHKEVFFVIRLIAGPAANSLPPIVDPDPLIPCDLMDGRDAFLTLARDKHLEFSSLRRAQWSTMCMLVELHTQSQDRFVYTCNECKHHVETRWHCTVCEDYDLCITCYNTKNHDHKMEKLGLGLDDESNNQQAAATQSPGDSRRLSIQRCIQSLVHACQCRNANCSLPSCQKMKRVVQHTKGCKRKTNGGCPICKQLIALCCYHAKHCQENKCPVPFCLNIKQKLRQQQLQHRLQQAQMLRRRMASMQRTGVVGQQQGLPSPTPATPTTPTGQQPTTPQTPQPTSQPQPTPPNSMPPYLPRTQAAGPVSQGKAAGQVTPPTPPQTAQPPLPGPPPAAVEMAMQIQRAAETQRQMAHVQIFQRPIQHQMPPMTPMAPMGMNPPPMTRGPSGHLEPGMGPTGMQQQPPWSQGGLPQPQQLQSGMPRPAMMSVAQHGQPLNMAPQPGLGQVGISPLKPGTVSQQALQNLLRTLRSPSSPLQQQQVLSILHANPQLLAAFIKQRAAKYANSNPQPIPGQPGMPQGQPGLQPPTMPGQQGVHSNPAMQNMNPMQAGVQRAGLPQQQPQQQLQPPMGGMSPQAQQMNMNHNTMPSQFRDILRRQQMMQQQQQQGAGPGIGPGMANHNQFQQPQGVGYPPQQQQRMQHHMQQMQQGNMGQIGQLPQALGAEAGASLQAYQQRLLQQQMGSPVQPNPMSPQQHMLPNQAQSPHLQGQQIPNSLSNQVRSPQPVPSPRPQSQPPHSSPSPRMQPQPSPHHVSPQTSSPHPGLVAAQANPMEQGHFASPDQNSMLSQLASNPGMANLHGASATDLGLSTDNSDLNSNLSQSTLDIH

Take `CC[C@H](C(=O)N1CCCC[C@H]1C(=O)O[C@H](CCc1ccc(OC)c(OC)c1)c1cccc(OCC(=O)NCCOCCOCCC(=O)NCCOc2ccc(CCc3nc4cc(-c5c(C)noc5C)ccc4n3CCN3CCOCC3)cc2)c1)c1cc(OC)c(OC)c(OC)c1` [AceTAG-1, (R)-3-(3,4-dimethoxyphenyl)-1-(3-((15-(4-(2-(5-(3,5-dimethylisoxazol-4-yl)-1-(2-morpholinoethyl)-1H-benzo[d]imidazol-2-yl)ethyl)phenoxy)-2,12-dioxo-6,9-dioxa-3,13-diazapentadecyl)oxy)phenyl)propyl (S)-1-((S)-2-(3,4,5-trimethoxyphenyl)butanoyl)piperidine-2-carboxylate]: in assay [1], the “binding at the non p53 binding sites within the C-terminus of p21 gene” value is on record as “no significant increase” and the “binding of FKBP12^F36V-p53 to four p53 binding sites on p21 promoter” value is given as “increased”. Moreover, the “acetylation of c-Myc and STAT3” value in assay [2] (FIG. 5B) was “no observable acetylation changes”. The “broader acetylation perturbation (acetylated lysine immunoblot)” value in assay [2] (FIG. 5C) was “no observable acetylation changes”. In addition, the “treatment time after which H3.3-FKBP12^F36V acetylation significantly increased” value in assay [3] (625 nM AceTAG-1, FIG. 4E) came out at 5 min. Further, the “acetylation level at high concentration (hook effect)” value in assay [3] (50 μM AceTAG-1) is given as “loss of acetylation level”. Further, the “K18 acetylation, comparison of analogs” value in assay [3] (FIG. 9B) is “modestly higher levels of acetylation relative to the other analogs”. The “acetylation of H3.3” value in assay [3] (HeLa cells, FIG. 8) is reported as “significant acetylation of H3.3”. The “H3.3 acetylation at lysine 18, 23, and 27” value in assay [3] (increasing concentrations, 2 hr, FIG. 4B) is given as “dose-dependent increase”. In addition, in assay [3] (increasing concentrations, 2 hr, FIG. 4C), the “H3.3 acetylation at lysine 9, 14, or 79” value is “not lysine 9, 14, or 79”. In assay [3] (washout, FIG. 4F), the “time for H3.3 K18 acetylation to reach near basal levels after compound removal” value was at most 2 h.
